Here are results for one molecule from patent US12371752B2 (priority 2019, dated 2025).

The test system of the assay is Arthrobacter ureafaciens-derived neuraminidase. Description: Reactivity of probe with Arthrobacter ureafaciens-derived neuraminidase (time-dependent fluorescence intensity). Format: biochemical. The settings on record: probe 1 μM, 0.01 U neuraminidase, 100 mm NaOAc, 2 mM CaCl2, pH7.4, 37° C., excitation 490 nm, emission 520 nm. As to the method: A probe (HMRef-S-Neu5Ac) was dissolved in dimethyl sulfoxide (DMSO, fluorescence measurement grade, Dojindo Laboratories) to obtain a stock solution. The stock solution was diluted with a buffer solution (100 mm NaOAc, 2 mM CaCl2, pH7.4) such that a final concentration of the probe became 1 μM, to obtain a measurement solution.
A fluorescence spectrum of the measurement solution was obtained by Hitachi F-700, every one second (excitation wavelength 490 nm, emission wavelength 520 nm). Sixty seconds after initiation of measurement, 0.01 U of Arthrobacter ureafaciens-derived neuraminidase was added singly or in combination with an enzyme inhibitor.

For the molecule `CC(=O)N[C@H]1[C@H]([C@H](O)[C@H](O)CO)O[C@@](Oc2ccc(COc3ccc4c(c3)Oc3cc(NCC(F)(F)F)ccc3C43OCc4ccccc43)cc2)(C(=O)O)C[C@@H]1O` (stereo partly shown) [HMRef-S-Neu5Ac], the “increase of fluorescence intensity by the reaction with the bacterium-derived neuraminidase” value stood at 130 times.
